Eleven compounds from patent publication US20210358575A1, “A METHOD FOR DETERMINING THE EFFICACY OF TREATMENT WITH A COMBINATION OF DRUGS IN A SUBJECT DIAGNOSED WITH A DISEASE AND A METHOD FOR CLASSIFYING THE UTILITY OF DRUG COMBINATIONS IN TREATMENT OF SAID SUBJECT” (priority 2018, published 2021) can be followed below.

The test system of experiment [1] is live pathological cells (LPC) in bone marrow samples of AML patients. Description: PharmaFlow PM test: ex vivo drug sensitivity of whole bone marrow samples, population pharmacodynamic models. Format: cell-based, human. Particulars: typical population value. The protocol: Ex vivo drug sensitivity analysis was made using the PharmaFlow platform (previously termed ExviTech®) maintaining the bone marrow (BM) microenvironment. A minimum BM sample volume between one and two mL was collected by aspiration at AML diagnosis, before starting induction chemotherapy, and was processed by an automated method 24 hours after extraction. Samples were incubated with CYT, IDA and/or CYT+IDA for 48 hours. A more detailed description of the procedure has been published elsewhere (Bennett, et al 2014).
Evaluation of drug response was done by counting the number of live pathological cells (LPC) remaining after incubation at increasing drug concentrations (Upton and Mould 2014). Dying cells (apoptosis) were excluded using Annexin V-FITC. Pharmacological responses were analyzed using PD population-based models (Upton and Mould 2014) which essentially perform the fitting of the dependent variable (natural log of LPC) in a non-linear mixed-effects model to derive typical population values (fixed effects) and the magnitude of inter-patient and residual variability (random effects).
Model development was performed with the first-order conditional estimation method using interaction option with the software NONMEM (v7.2) (Beal, et al 1989-2001), according to the following equation: […]
Where LPC0 (LCTi0) parameter refers to the number of LPC (LCTi) after incubation in the absence of drug, Emax represents the maximum fractional decrease in LPC that the drug can elicit, EC50, is the drug concentration exerting half of Emax, and γ is the parameter governing the steepness of the LPC vs drug concentration (C) curve. For interaction analysis a Surface Interaction model (Greco, et al 1995) was used to estimate the degree of synergy, referred as a parameter, between both drugs. Interpatient variability (IPV) associated to all parameters was described by means of an exponential model of the components of variance. An additive error structure was used for the residual variability. Population PD models were built with bone marrow (BM) samples from 473 patients that were incubated with CYT, 456 with IDA and 443 with CYT+IDA. Bayesian estimation methods were then used to retrieve individual patient parameters based on their available exposure-response measurements in conjunction with the PD population parameters.
Individual response profiles normalized with respect to LPC0 (LCTi0), were integrated between the concentration points corresponding to the 20th and 80th percentiles of the distribution of estimated individual EC50 values, to obtain the values of the areas under the curves (AUCs) that were used as a descriptor of the ex vivo drug effect (i.e. the higher the AUC, the lower the cytotoxic effect (efficacy or potency) of the drug.

Experiment [2] concerns bone marrow samples of acute lymphoid leukemia (ALL) patients. Put plainly: Ex vivo test of single drugs, EC50 compared with population distribution, acute lymphoid leukemia samples. Format: cell-based, human. The protocol: (§1) Bone marrow samples were obtained from three adult patients diagnosed with MM (VIVIA-PMMM010431, VIVIA-PMMM060111 and VIVIA-PMMM130061) and three adult patients diagnosed with ALL (VIVIA-PMALL07002, VIVIA-PMALL04001 and VIVIA-PMALL09001). Following the same experimental design as described for examples 1 and 3, said bone marrow samples were incubated for 48 h in well plates containing the single drugs shown in FIGS. 21 to 26. After the measurement of pathological populations by flow cytometry, pharmacological response parameters were estimated using population pharmacodynamic models. The most representative parameter of drug potency, the EC50, was used for a comparative analysis of the results provided by said bone marrow samples with respect to the statistical distribution of the same parameter observed in a population of samples and stored in the database. Such populations varied in size depending on the drug, being always over one hundred individuals in the case of MM and between 15 and 21 individuals in the case of ALL.

Experiment [3] has as its system first-line AML patients treated with CYT+IDA. Description: Validation of PM Test score vs clinical response in 112 first-line AML samples. The following applies: 112 AML patients treated with CYT+IDA. The experiment is classed as in vivo, human. The source says:
The Precision Medicine (PM) Test as described ranks treatments by a score that estimates the activity of each treatment across a population of patient samples. Higher score represents more ex vivo sensitivity to treatment, while lower score represents less ex vivo sensitivity to treatment, i.e. more ex vivo resistance. A particular format of the results of the PM Test is shown in FIG. 19, panels A and B, wherein the ranking of treatments by activity score from 100%=best to 0%=worst is shown (score may be represented graphically using a colour/tone gradient or categorisation). The following 3 categories are identified:
To validate the predictive power of these PM Test score results, the set of 123 samples treated homogeneously with CYT+IDA that were used in the correlation study of Example 1 were employed. Only 112 samples were used for validation. To evaluate the predictive power of the PM Test score, in the format shown in FIG. 19, panel A referring to a sensitive patient we can only use patients predicted to be sensitive or resistant. Treatments having intermediate scores are not considered sufficiently strong to predict any response. In the case of intermediate scores, other factors such as pharmacokinetics may be more important than the score. On the other hand, extreme scores are more likely to prevail over other factors such as pharmacokinetics.
The set of data of 112 patients treated with CYT+IDA represents a 1st line treatment of AML with a 72% response rate. This means that 72% of these 112 patients achieved Complete Remission (CR) clinically. The majority of patients were sensitive, with fewer resistant patients. Thus, the statistics are improved by calculating the % of cases in which the PM Test score predicted patients to be sensitive to the ex vivo treatment. This means selecting only the treatments to which the patient is expected to be very sensitive, with scores between 80-100%. The % of accurate prediction of sensitive (responsive) patients is referred as the Negative Predicted Value (NPV).
Samples whose score are between this variable threshold and 100% are analysed and predicted as sensitive because they have the top score. The results are shown for the monotherapies CYT and IDA, and for the combination treatment. Focus was placed on the combination treatment CYT+IDA that was administered to patients. Columns 8 to 10 of Table 4 show the results for the combined treatment CYT+IDA for different thresholds. The lowest threshold 55%, which means between 55 and 100%, identifies 93 out of the 112 samples, that would be predicted as sensitive. […] Thus, the prediction accuracy or NPV is 77/93=82.8%. As the threshold is increased (descending the 1st column of Table 4), the range of scores included is narrowed because the maximum is always 100%. Consequently, as the threshold is increased, the total number of samples included diminishes, reaching 0 samples at 100% (100-100%) and 18 samples at 95%. The decrease can be observed in the number of either sensitive or resistant samples (descending columns 8 and 9 of Table 4). […] Thus, the higher the score, the better the prediction (moreover, the intermediate sensitivity values provide less accurate prediction than the extreme values).

In experiment [4] the test system is bone marrow samples of multiple myeloma (MM) patients. Description: Ex vivo test of single drugs, EC50 compared with population distribution, multiple myeloma samples. The experiment is classed as cell-based, human. The protocol:
as §1

The mark [5] stands for this setting: ALL second line patient VIVIA-PMALL04001, 48 h.
Where [6] appears, read: MM patient VIVIA-PMMM010431, 48 h.
Setting [7] is: MM patient VIVIA-PMMM130061, 48 h.
[8] abbreviates: MM patient VIVIA-PMMM060111, 48 h.
The mark [9] stands for this setting: ALL patient VIVIA-PMALL07002, 48 h.
[10] abbreviates: ALL patient VIVIA-PMALL09001, 48 h.

The EC50 is the concentration at which the effect is half-maximal. Consider `Nc1ccn([C@@H]2O[C@H](CO)[C@@H](O)[C@@H]2O)c(=O)n1` [Cytarabine, cytarabine], for which, in experiment [1] (Homo sapiens, AML bone marrow samples, 48 h incubation), the EC50 worked out at 6.94 µM. Moreover, in experiment [1] (set to 1 in the model, 48 h), the “EMAX (maximum fractional decrease in LPC)” value is 1. For the same compound, the “γ (steepness of LPC vs concentration curve)” value in experiment [1] (48 h) turned out to be 0.684. For the same compound, in experiment [2] (setting [5]), the ex vivo activity entry is listed as “intermediate-low activity”. In addition, the “% Sens. (percentage of patients sensitive to therapy, NPV)” value was found to be 84.8% in experiment [3] (PM Test score ≥55); 85.7% in experiment [3] (PM Test score ≥60); 85.4% in experiment [3] (PM Test score ≥65); 85.1% in experiment [3] (PM Test score ≥70); 86.1% in experiment [3] (PM Test score ≥75); 86.1% in experiment [3] (PM Test score ≥80). In addition, the “% Sens. (percentage of patients sensitive to therapy, NPV)” value in experiment [3] (PM Test score ≥85) came to 87.1%; in experiment [3] (PM Test score ≥90), 85.2%; in experiment [3] (PM Test score ≥95) it was 83.7%. Further, the “Res. (number of patients resistant to therapy)” value in experiment [3] (PM Test score ≥55) is 14; in experiment [3] (PM Test score ≥60), 13; in experiment [3] (PM Test score ≥65) it was 13; in experiment [3] (PM Test score ≥70), 13; in experiment [3] (PM Test score ≥75), 11; in experiment [3] (PM Test score ≥80), 10. In addition, the “Res. (number of patients resistant to therapy)” value in experiment [3] (PM Test score ≥85) is given as 8; in experiment [3] (PM Test score ≥90) it was 8; in experiment [3] (PM Test score ≥95) it was 7; in experiment [3] (PM Test score ≥100), 0. Besides, the “Sens. (number of patients sensitive to therapy)” value was 78 in experiment [3] (PM Test score ≥55); 78 in experiment [3] (PM Test score ≥60); 76 in experiment [3] (PM Test score ≥65); 74 in experiment [3] (PM Test score ≥70); 68 in experiment [3] (PM Test score ≥75); 62 in experiment [3] (PM Test score ≥80). Further, the “Sens. (number of patients sensitive to therapy)” value is 54 in experiment [3] (PM Test score ≥85), 46 in experiment [3] (PM Test score ≥90), 36 in experiment [3] (PM Test score ≥95) and 0 in experiment [3] (PM Test score ≥100).

In the case of `Cn1c(CCCC(=O)O)nc2cc(N(CCCl)CCCl)ccc21` [bendamustine], in experiment [4] (setting [6]), the “EC50 relative to population distribution” value is “below the 10th percentile” and the ex vivo activity result is “potent activity”. In experiment [4] (setting [7]), the ex vivo activity entry is on record as “very weak activity”.

With `CC(C)C[C@H](NC(=O)[C@H](Cc1ccccc1)NC(=O)c1cnccn1)B(O)O` [bortezomib], in experiment [4] (setting [6]), the “EC50 relative to population distribution” value is recorded as “below the first quartile”. Moreover, the ex vivo activity result in experiment [4] (setting [6]) is reported as “potent activity”; in experiment [4] (setting [8]) it was “intermediate activity”; in experiment [4] (setting [7]), “very weak activity”.

Turning to `O=P1(N(CCCl)CCCl)NCCCO1` (stereo not shown) [cyclophosphamide], the ex vivo activity entry in experiment [2] (setting [9]) is given as “intermediate or high activity”.

As to `COc1cccc2c1C(=O)c1c(O)c3c(c(O)c1C2=O)C[C@@](O)(C(C)=O)C[C@@H]3O[C@H]1C[C@H](N)[C@H](O)[C@H](C)O1` [daunorubicin], the values for the ex vivo activity result in experiment [2] (setting [9]), in experiment [2] (setting [10]) and in experiment [2] (setting [5]) were “intermediate or high activity”, “high activity” and “low activity or resistance”, respectively.

Consider `C[C@@H]1C[C@H]2[C@@H]3CCC4=CC(=O)C=C[C@]4(C)[C@@]3(F)[C@@H](O)C[C@]2(C)[C@@]1(O)C(=O)CO` [dexamethasone], for which the ex vivo activity entry in experiment [4] (setting [8]) is on record as “no activity”.

For `O=C1c2c(O)ccc(O)c2C(=O)c2c(NCCNCCO)ccc(NCCNCCO)c21` [mitoxantrone], the ex vivo activity result in experiment [2] (setting [5]) is “low activity or resistance”.

In the case of `C[C@]12C=CC(=O)C=C1CC[C@@H]1[C@@H]2[C@@H](O)C[C@@]2(C)[C@H]1CC[C@]2(O)C(=O)CO` [prednisolone], the ex vivo activity result in experiment [2] (setting [9]) is on record as “intermediate or high activity”; in experiment [2] (setting [10]) it was “high activity”; in experiment [4] (setting [6]), “potent activity”. Moreover, the “EC50 relative to population distribution” value in experiment [4] (setting [6]) is “below the 10th percentile”.

As for `O=C1CCC(N2C(=O)c3ccccc3C2=O)C(=O)N1` (stereo not shown) [thalidomide], the ex vivo activity result in experiment [4] (setting [7]) is “very weak activity”.

As for `CC[C@]1(O)C[C@H]2CN(CCc3c([nH]c4ccccc34)[C@@](C(=O)OC)(c3cc4c(cc3OC)N(C=O)[C@H]3[C@@](O)(C(=O)OC)[C@H](OC(C)=O)[C@]5(CC)C=CCN6CC[C@]43[C@@H]65)C2)C1` [vincristine], the ex vivo activity entry is given as “intermediate or high activity” in experiment [2] (setting [9]), “high activity” in experiment [2] (setting [10]) and “low activity or resistance” in experiment [2] (setting [5]).

On to L-asparaginase, for which, in experiment [2] (setting [9]), the ex vivo activity result is “intermediate or high activity”.
